Assay [1] has as its system Human umbilical vein endothelial cells (HUVEC). Kind of assay: In vitro capillary formation assay. Type of assay: cell-based. The conditions noted are these: HUVEC on Cultrex, 16 hours. The method, then: In vitro capillary formation assay was performed with Human umbilical vein endothelial cells (HUVEC), cultured on 10 mg/ml basement membrane extract (BME-Cultrex®, R&D Systems, USA) bed. The protocol of in vitro endothelial tube formation assay was the same as described earlier with some modifications (44). Briefly, four hundred microliters of Cultrex was coated at 4° C. in each well of 24-well culture plate and allowed to gel at 37° C. for 1 h. HUVECs were plated at a density of 7.5×10^4 cells per well with […] of DMEM supplemented with 10% fetal bovine serum and 4.5 g/l D-glucose. The cells were then treated with either DTIC or Compound 6 at desired concentration as indicated for 16 hours. Vehicle control cultures received only 0.1% DMSO. Pictures were taken under a Nikon Eclipse TS 100 microscope equipped with a Nikon Coolpix camera.

The subject of another assay is B16 F0 melanoma. Description: B16 F0 melanoma xenograft model of C57B6J mice. The settings on record: for dose response of tumor growth inhibition: two dose levels (50 and 100 mg/kg), intra-peritoneal. Format: in vivo. The method, then: […] mice of 6 weeks age (body weight 18-22 g) were purchased from National Institute of Nutrition (NIN), Hyderabad (India). Animals study protocols were approved by Institutional Ethics Committee (IAEC). All the studies were performed in compliance with the Committee for the Purpose of Control and Supervision of Experiments on Animals (CPCSEA) guidelines and OECD guidelines. Animals were allowed free access to standard feed and provided charcoal filtered and UV exposed water ad libitum. The animals were maintained at a controlled temperature (24-26° C.), humidity (45-70%), and 12 h/12 h of light/dark cycle. To induce the melanoma tumor formation, sub-confluent B16F0 cells were harvested by brief trypsinization and 1×10^6 cells were injected subcutaneously in 0.2 ml phosphate-buffered saline. Drug treatment was started after development of palpable tumors (3-5 days after implantation of the cells). […] After fourteen days of treatment, the animals were sacrificed by CO2 inhalation and tumors were excised and weighed.

In assay [2] the test system is DU145 human prostate tumor cells. Kind of assay: MTT cell proliferation assay in DU145 cells. Format: cell-based. The conditions noted are these: DU-145, read-out: 50% of inhibitory concentration, IC50 DU145. Here is the method:
(§1) MTT [3-(4,5-dimethylthiazol-2-yl)-2,5-diphenyltetrazolium bromide] incorporation based cell proliferation assay was performed using standard procedure with some modifications (38). The cytotoxic efficacy of the test compounds were evaluated in human malignant melanoma A2058 cells by MTT cell proliferation assay kit (Roche Applied Sciences, Germany). The assay was carried out according to the instruction provided by the vendor. Briefly, equal numbers of cells was plated in 96-well flat-bottomed plates in 100 μl of medium and were exposed to either DTIC or its derivative compounds at various concentrations up to 150 μg/ml for a period of three days. Vehicle control culture wells received only a maximum of 0.5% DMSO. Thereafter, 0.5 mg/ml of MTT reagent was added to each well and the microplate was incubated further for 4 h at 37° C. in presence of 5% CO2. Finally, the cells were solubilized by adding solubilizing solution and allowed to incubate at 37° C. overnight. After complete solubilization of the formazan crystals the absorbance was read at 540 nm in a microplate reader (BioRad, USA). The results (mean OD±SD) obtained from quadruplicate wells were used in calculation to determine the inhibition of cell proliferation (50% inhibitory concentration, IC50) of the test compounds.
(§2) Anti-tumor growth potential of Compound 1 and Compound 6 were evaluated in MCF-7 human breast tumor cells, MIA-PaCa2 human pancreas tumor cells and DU145 human prostate tumor cells by using MTT based cell proliferation studies as described earlier (example 19). The results (mean OD±SD) obtained from quadruplicate wells were used in calculation to determine the inhibition of cell proliferation (50% of inhibitory concentration, IC50) of the test compounds (Table 4).
(In general: Tetrazolium dyes change colour on reduction, which living cells bring about.)

In a further assay the test system is B16F0 cells. Kind of assay: B16 F0 mouse melanoma cell colony formation assay. Format: cell-based. The settings on record: B16F0, 192 h, 8 days, read-out: B16 colony growth inhibition; for inhibition at 100 µg/mL: 100 μg/ml. The method, then:
Clone formation efficiency of the Compound 6 and DTIC was tested by following the procedure described earlier with some modifications (41). Briefly, B16F0 cells were harvested and seeded into 6-well plates (100 cells/ml). The cells were allowed to grow for 2 days and thereafter, the cells were incubated with DMEM containing either 0.1% DMSO or 100 μg/ml DTIC or 50 μg/ml and 100 μg/ml of Compound 6 for further 8 days. Fresh medium containing test agents was replaced at every 24 h. Finally, the wells were washed three times with PBS and fixed in methanol for 15 min. The cells were stained with Giemsa stain and observed under microscope. The image of the stained wells were captured digitally (Kodak Image Station 4000MM, Carestream Health Inc., New Haven, Conn.) and number of colonies were counted and analyzed by using NIH Image J software.

Assay [3] deals with B16F0 mouse melanoma cells. Kind of assay: MTT cell proliferation assay in B16F0 cells. Type of assay: cell-based. The settings on record: B16F0, 72 h, 3 days, read-out: 50% of inhibitory concentration, IC50 in B16 F0 cells. Here is the method: as §1, with “Thereafter, 0.5 mg/ml of MTT reagent was added to each well and the microplate was incubated further for 4 h at 37° C. in presence of 5% CO2. Finally, the cells were solubilized by adding solubilizing solution and allowed to incubate at 37° C. overnight.” left out, “The results (mean OD±SD) obtained from quadruplicate wells were used in calculation to determine the inhibition of cell proliferation (50% inhibitory concentration, IC50) of the test compounds.” left out
The comparative anti-tumor growth potential of DTIC and Compound 6 was further tested in B16F0 mouse melanoma cells and A375 human melanoma cells by using MTT based cell proliferation assay following the methodology described earlier (Example 19). […] After adding the MTT reagent, the cells were solubilized and the intracellular formazan formation was calorimetrically read at 540 nm in a microplate reader (BioRad, USA). […]

Assay [4] has as its system A2058, human malignant melanoma cells. Description: MTT cell proliferation assay in A2058 cells. Type of assay: cell-based. The conditions noted are these: A2058, 72 h, three days exposure. Here is the method: as §1
For assay [5], the system named is MCF-7 human breast tumor cells. Kind of assay: MTT cell proliferation assay in MCF-7 cells. The conditions noted are these: MCF7, read-out: 50% of inhibitory concentration, IC50 MCF-7. Type of assay: cell-based. Here is the method: as §1, §2

Converted amounts (≈) assume the structure as drawn.

As usually defined, the inhibition is the share of the control response that was lost under treatment.

In the case of `CN(C)/N=N/c1[nH]cnc1C(N)=O` [DTIC, 5-(3,3-dimethyl-1-trizeno)-imidazole-4-carboxamide, reference compound], in assay [1], the capillary formation entry is “promoted capillary formation”. For the same compound, the “dose response of tumor growth inhibition” value with B16 F0 melanoma is recorded as “failed to show statistically significant dose response”. Besides, the IC50 in assay [2] was 87.2 mg/L (≈ 479 µM); in assay [3], 360 mg/L (≈ 1980 µM); in assay [4], 68.1 mg/L (≈ 374 µM); in assay [5], 135 mg/L (≈ 742 µM). The inhibition at 100 µg/mL in the assay with B16F0 cells came out at 37.6%.

For `CN(C)/N=N/c1ccsc1C(=O)O` [Compound 6, 3-[(dimethylamino)diazenyl]thiophene-2-carboxylic acid], the capillary formation result in assay [1] is given as “inhibition of capillary formation in a dose dependent manner”. Further, the anti-tumor activity entry in the assay on B16 F0 melanoma (daily intra-peritoneal, fourteen days, tumor weight) was “better anti-tumor activity than DTIC”. Moreover, the “dose response of tumor growth inhibition” value in the assay on B16 F0 melanoma is listed as “dose response inhibition at the two dose levels tested”. Also, the IC50 in assay [2] worked out at 62.6 mg/L (≈ 314 µM); in assay [3] it was 57.6 mg/L (≈ 289 µM); in assay [4], 53.6 mg/L (≈ 269 µM); in assay [5], 91.7 mg/L (≈ 460 µM). For the same compound, in the assay with B16F0 cells (50 μg/ml), the inhibition at 50 µg/mL worked out at 55.2%. In addition, in the assay on B16F0 cells, the inhibition at 100 µg/mL came out at 68.7%.

For the origin of these results see patent US8258119B2, “Anti-cancer drugs and uses relating thereto for metastatic malignant melanoma and other cancers” (Kasina Laila Innova Pharmaceuticals, priority 2008, dated 2012).
